The supplement of paper PMC10307832

Tests used:
Assay in all cases: relative viability (nuclei count vs DMSO), 5 days (fraction); higher = more cells survive
NCI-H2087 = test system: NCI-H2087
In short: (§1)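 Lung cancer cell lines were pin-tool dosed in 1536-well plates on the day after seeding, with either a lone drug or a fixed anchor-drug dose plus five library-drug doses (not always all listed) in √10 steps. Nuclei were counted on 4× images after 5 days. Relative viability is the ratio of treated-well to vehicle-well nuclei counts, with each value a median of duplicate plates.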

NCI-H1651 = test system: NCI-H1651
In short: as §1

ChaGo-K-1 = test system: ChaGo-K-1
In short: as §1

LCLC-97TM1 = test system: LCLC-97TM1
In short: as §1

BEN = test system: BEN
In short: as §1

LXF-289 = test system: LXF-289
In short: as §1

LU99A = test system: LU99A
In short: as §1

UMC-11 = test system: UMC-11
In short: as §1

H3255 = test system: H3255
In short: as §1

SK-MES-1 = test system: SK-MES-1
In short: as §1

NCI-H596 = test system: NCI-H596
In short: as §1

LC-2-ad = test system: LC-2-ad
In short: as §1

PC-3 [JPC-3] = test system: PC-3 [JPC-3]
In short: as §1

NCI-H838 = test system: NCI-H838
In short: as §1

NCI-H650 = test system: NCI-H650
In short: as §1

NCI-H322M = test system: NCI-H322M
In short: as §1

NCI-H1666 = test system: NCI-H1666
In short: as §1

NCI-H1944 = test system: NCI-H1944
In short: as §1

HCC-78 = test system: HCC-78
In short: as §1

HCC-15 = test system: HCC-15
In short: as §1

NCI-H358 = test system: NCI-H358
In short: as §1

LK-2 = test system: LK-2
In short: as §1

NCI-H2342 = test system: NCI-H2342
In short: as §1

NCI-H661 = test system: NCI-H661
In short: as §1

Compound: C[C@@H]1CN(CC(=O)Nc2ccc3c(c2)Cc2cccc(-c4cc(=O)cc(N5CCOCC5)o4)c2S3)C[C@H](C)O1 + CC(=O)Nc1cccc(-n2c(=O)n(C3CC3)c(=O)c3c(Nc4ccc(I)cc4F)n(C)c(=O)c(C)c32)c1 [Trametinib] (partner 0.02 µM)
- relative viability (NCI-H2087; first compound 0.04 µM): 0.248
- relative viability (NCI-H2087; first compound 0.1265 µM): 0.224
- relative viability (NCI-H2087; first compound 0.4 µM): 0.16
- relative viability (NCI-H2087; first compound 4 µM): 0.184
- relative viability (NCI-H1651; first compound 0.04 µM): 0.874
- relative viability (NCI-H1651; first compound 0.1265 µM): 0.894
- relative viability (NCI-H1651; first compound 0.4 µM): 0.83
- relative viability (NCI-H1651; first compound 4 µM): 0.629
- relative viability (ChaGo-K-1; first compound 0.04 µM): 0.868
- relative viability (ChaGo-K-1; first compound 0.1265 µM): 0.859
- relative viability (ChaGo-K-1; first compound 0.4 µM): 0.879
- relative viability (ChaGo-K-1; first compound 4 µM): 0.871
- relative viability (LCLC-97TM1; first compound 0.1265 µM): 0.165
- relative viability (LCLC-97TM1; first compound 0.4 µM): 0.165
- relative viability (LCLC-97TM1; first compound 4 µM): 0.175
- relative viability (BEN; first compound 0.04 µM): 0.972
- relative viability (BEN; first compound 0.1265 µM): 0.99
- relative viability (BEN; first compound 0.4 µM): 1.14
- relative viability (BEN; first compound 4 µM): 1.03
- relative viability (LXF-289; first compound 0.04 µM): 0.653
- relative viability (LXF-289; first compound 0.1265 µM): 0.682
- relative viability (LXF-289; first compound 0.4 µM): 0.658
- relative viability (LXF-289; first compound 4 µM): 0.676
- relative viability (LU99A; first compound 0.04 µM): 0.508
- relative viability (LU99A; first compound 0.1265 µM): 0.534
- relative viability (LU99A; first compound 0.4 µM): 0.587
- relative viability (LU99A; first compound 4 µM): 0.59
- relative viability (UMC-11; first compound 0.04 µM): 0.732
- relative viability (UMC-11; first compound 0.1265 µM): 0.757
- relative viability (UMC-11; first compound 0.4 µM): 0.868
- relative viability (UMC-11; first compound 4 µM): 0.65
- relative viability (H3255; first compound 0.04 µM): 0.584
- relative viability (H3255; first compound 0.1265 µM): 0.601
- relative viability (H3255; first compound 0.4 µM): 0.473
- relative viability (H3255; first compound 4 µM): 0.437
- relative viability (SK-MES-1; first compound 0.04 µM): 0.652
- relative viability (SK-MES-1; first compound 0.1265 µM): 0.53
- relative viability (SK-MES-1; first compound 0.4 µM): 0.463
- relative viability (SK-MES-1; first compound 4 µM): 0.405
- relative viability (NCI-H596; first compound 0.04 µM): 0.771
- relative viability (NCI-H596; first compound 0.1265 µM): 0.757
- relative viability (NCI-H596; first compound 0.4 µM): 0.725
- relative viability (NCI-H596; first compound 4 µM): 0.768
- relative viability (LC-2-ad; first compound 0.04 µM): 0.897
- relative viability (LC-2-ad; first compound 0.1265 µM): 0.867
- relative viability (LC-2-ad; first compound 0.4 µM): 0.892
- relative viability (LC-2-ad; first compound 4 µM): 0.854
- relative viability (PC-3 [JPC-3]; first compound 0.04 µM): 0.808
- relative viability (PC-3 [JPC-3]; first compound 0.1265 µM): 0.665
- relative viability (PC-3 [JPC-3]; first compound 0.4 µM): 0.666
- relative viability (PC-3 [JPC-3]; first compound 4 µM): 0.634
- relative viability (NCI-H838; first compound 0.04 µM): 0.688
- relative viability (NCI-H838; first compound 0.1265 µM): 0.488
- relative viability (NCI-H838; first compound 0.4 µM): 0.521
- relative viability (NCI-H838; first compound 4 µM): 0.39
- relative viability (NCI-H650; first compound 0.04 µM): 0.954
- relative viability (NCI-H650; first compound 0.1265 µM): 1
- relative viability (NCI-H650; first compound 0.4 µM): 0.874
- relative viability (NCI-H650; first compound 4 µM): 0.697
- relative viability (NCI-H322M; first compound 0.04 µM): 0.402
- relative viability (NCI-H322M; first compound 0.1265 µM): 0.535
- relative viability (NCI-H322M; first compound 0.4 µM): 0.502
- relative viability (NCI-H322M; first compound 4 µM): 0.501
- relative viability (NCI-H1666; first compound 0.04 µM): 0.881
- relative viability (NCI-H1666; first compound 0.1265 µM): 0.924
- relative viability (NCI-H1666; first compound 0.4 µM): 0.91
- relative viability (NCI-H1666; first compound 4 µM): 0.738
- relative viability (NCI-H1944; first compound 0.1265 µM): 0.412
- relative viability (NCI-H1944; first compound 0.4 µM): 0.4
- relative viability (NCI-H1944; first compound 4 µM): 0.425
- relative viability (HCC-78; first compound 0.04 µM): 0.713
- relative viability (HCC-78; first compound 0.1265 µM): 0.751
- relative viability (HCC-78; first compound 0.4 µM): 0.859
- relative viability (HCC-78; first compound 4 µM): 0.711
- relative viability (HCC-15; first compound 0.04 µM): 0.374
- relative viability (HCC-15; first compound 0.1265 µM): 0.331
- relative viability (HCC-15; first compound 0.4 µM): 0.308
- relative viability (HCC-15; first compound 4 µM): 0.348
- relative viability (NCI-H358; first compound 0.04 µM): 0.131
- relative viability (NCI-H358; first compound 0.1265 µM): 0.121
- relative viability (NCI-H358; first compound 0.4 µM): 0.12
- relative viability (NCI-H358; first compound 4 µM): 0.112
- relative viability (LK-2; first compound 0.04 µM): 0.874
- relative viability (LK-2; first compound 0.1265 µM): 0.756
- relative viability (LK-2; first compound 0.4 µM): 0.709
- relative viability (LK-2; first compound 4 µM): 0.912
- relative viability (NCI-H2342; first compound 0.04 µM): 0.806
- relative viability (NCI-H2342; first compound 0.1265 µM): 0.743
- relative viability (NCI-H2342; first compound 0.4 µM): 0.818
- relative viability (NCI-H2342; first compound 4 µM): 0.721
- relative viability (NCI-H661; first compound 0.04 µM): 0.481
- relative viability (NCI-H661; first compound 0.1265 µM): 0.552
- relative viability (NCI-H661; first compound 0.4 µM): 0.615
- relative viability (NCI-H661; first compound 4 µM): 0.507
